Assay results published in ChEMBL document CHEMBL1649268, “Comparative in vitro activity profile of oritavancin against recent gram-positive clinical isolates” (2009).
Values after ≈ are worked out from the molar mass of the structure shown.

How the values were obtained:
Type in all cases: functional
[1] = test system: Streptococcus pneumoniae; assay: Antimicrobial activity against penicillin-resistant Streptococcus pneumoniae clinical isolates by broth microdilution method
[2] = Antimicrobial activity against erythromycin-nonsusceptible Streptococcus Group C clinical isolates by broth microdilution method; conditions: Streptococcus sp. 'group C'
[3] = test system: Staphylococcus aureus; assay: Antimicrobial activity against Staphylococcus aureus clinical isolates by broth microdilution method
[4] = test system: Streptococcus pneumoniae; assay: Antimicrobial activity against Streptococcus pneumoniae clinical isolates by broth microdilution method
[5] = test system: Streptococcus; assay: Antimicrobial activity against erythromycin-nonsusceptible Streptococcus Group F clinical isolates by broth microdilution method
[6] = test system: Staphylococcus aureus; assay: Antimicrobial activity against oxacillin-resistant Staphylococcus aureus clinical isolates by broth microdilution method
[7] = Antimicrobial activity against Streptococcus Group G clinical isolates by broth microdilution method; conditions: Streptococcus sp. 'group G'
[8] = test system: Streptococcus pyogenes; assay: Antimicrobial activity against Streptococcus pyogenes clinical isolates by broth microdilution method
[9] = test system: Enterococcus faecium; assay: Antimicrobial activity against vancomycin-susceptible Enterococcus faecium clinical isolates by broth microdilution method
[10] = test system: Staphylococcus haemolyticus; assay: Antimicrobial activity against Staphylococcus haemolyticus clinical isolates by broth microdilution method
[11] = Antimicrobial activity against erythromycin-susceptible Streptococcus Group C clinical isolates by broth microdilution method; conditions: Streptococcus sp. 'group C'
[12] = Antimicrobial activity against Streptococcus Group C clinical isolates by broth microdilution method; conditions: Streptococcus sp. 'group C'
[13] = Antimicrobial activity against erythromycin-nonsusceptible Streptococcus Group G clinical isolates by broth microdilution method; conditions: Streptococcus sp. 'group G'
[14] = Antimicrobial activity against erythromycin-susceptible Streptococcus Group G clinical isolates by broth microdilution method; conditions: Streptococcus sp. 'group G'
[15] = test system: Enterococcus faecalis; assay: Antimicrobial activity against Enterococcus faecalis expressing VanA gene clinical isolates by broth microdilution method
[16] = test system: Streptococcus pneumoniae; assay: Antimicrobial activity against penicillin-intermediate Streptococcus pneumoniae clinical isolates by broth microdilution method
[17] = test system: Enterococcus faecium; assay: Antimicrobial activity against vancomycin-nonsusceptible Enterococcus faecium clinical isolates by broth microdilution method
[18] = test system: Streptococcus agalactiae; assay: Antimicrobial activity against erythromycin-susceptible Streptococcus agalactiae clinical isolates by broth microdilution method
[19] = test system: Staphylococcus epidermidis; assay: Antimicrobial activity against oxacillin-susceptible Staphylococcus epidermidis clinical isolates by broth microdilution method
[20] = test system: Staphylococcus haemolyticus; assay: Antimicrobial activity against oxacillin-resistant Staphylococcus haemolyticus clinical isolates by broth microdilution method
[21] = test system: Staphylococcus epidermidis; assay: Antimicrobial activity against oxacillin-resistant Staphylococcus epidermidis clinical isolates by broth microdilution method
[22] = test system: Staphylococcus aureus; assay: Antimicrobial activity against vancomycin-intermediate Staphylococcus aureus clinical isolates
[23] = test system: Enterococcus faecium; assay: Antimicrobial activity against Enterococcus faecium expressing VanB gene clinical isolates by broth microdilution method
[24] = test system: Streptococcus pyogenes; assay: Antimicrobial activity against erythromycin-nonsusceptible Streptococcus pyogenes clinical isolates by broth microdilution method
[25] = test system: Enterococcus faecalis; assay: Antimicrobial activity against Enterococcus faecalis expressing VanB gene clinical isolates by broth microdilution method
[26] = test system: Staphylococcus aureus; assay: Antimicrobial activity against oxacillin-susceptible Staphylococcus aureus clinical isolates by broth microdilution method
[27] = test system: Enterococcus faecium; assay: Antimicrobial activity against Enterococcus faecium expressing VanA gene clinical isolates by broth microdilution method
[28] = test system: Staphylococcus aureus; assay: Antimicrobial activity against heterogeneous vancomycin-intermediate Staphylococcus aureus clinical isolates
[29] = test system: Streptococcus pyogenes; assay: Antimicrobial activity against erythromycin-susceptible Streptococcus pyogenes clinical isolates by broth microdilution method
[30] = test system: Streptococcus agalactiae; assay: Antimicrobial activity against erythromycin-nonsusceptible Streptococcus agalactiae clinical isolates by broth microdilution method
[31] = test system: Staphylococcus haemolyticus; assay: Antimicrobial activity against oxacillin-susceptible Staphylococcus haemolyticus clinical isolates by broth microdilution method
[32] = test system: Streptococcus; assay: Antimicrobial activity against Streptococcus Group F clinical isolates by broth microdilution method
[33] = test system: Staphylococcus aureus; assay: Antimicrobial activity against vancomycin-resistant Staphylococcus aureus clinical isolates
[34] = test system: Staphylococcus aureus; assay: Antimicrobial activity against vancomycin- susceptible Staphylococcus aureus clinical isolates
[35] = test system: Streptococcus pneumoniae; assay: Antimicrobial activity against penicillin-susceptible Streptococcus pneumoniae clinical isolates by broth microdilution method
[36] = test system: Enterococcus faecalis; assay: Antimicrobial activity against vancomycin-nonsusceptible Enterococcus faecalis clinical isolates by broth microdilution method
[37] = test system: Enterococcus faecalis; assay: Antimicrobial activity against Enterococcus faecalis clinical isolates by broth microdilution method
[38] = test system: Staphylococcus epidermidis; assay: Antimicrobial activity against Staphylococcus epidermidis clinical isolates by broth microdilution method
[39] = test system: Streptococcus agalactiae; assay: Antimicrobial activity against Streptococcus agalactiae clinical isolates by broth microdilution method
[40] = test system: Enterococcus faecalis; assay: Antimicrobial activity against vancomycin-susceptible Enterococcus faecalis clinical isolates by broth microdilution method
[41] = test system: Streptococcus; assay: Antimicrobial activity against erythromycin-susceptible Streptococcus Group F clinical isolates by broth microdilution method
[42] = test system: Enterococcus faecium; assay: Antimicrobial activity against Enterococcus faecium clinical isolates by broth microdilution method
[43] = test system: Streptococcus pneumoniae; assay: Antimicrobial activity against penicillin-susceptible Streptococcus pneumoniae clinical isolates assessed as resistant isolates by broth microdilution method in presence of clavulanate
[44] = test system: Streptococcus pneumoniae; assay: Antimicrobial activity against penicillin-intermediate Streptococcus pneumoniae clinical isolates assessed as resistant isolates by broth microdilution method in presence of clavulanate
[45] = test system: Streptococcus pneumoniae; assay: Antimicrobial activity against penicillin-intermediate Streptococcus pneumoniae clinical isolates by broth microdilution method in presence of clavulanate
[46] = test system: Streptococcus pneumoniae; assay: Antimicrobial activity against Streptococcus pneumoniae clinical isolates by broth microdilution method in presence of clavulanate
[47] = test system: Streptococcus pneumoniae; assay: Antimicrobial activity against Streptococcus pneumoniae clinical isolates assessed as percent susceptible isolates by broth microdilution method in presence of clavulanate
[48] = test system: Streptococcus pneumoniae; assay: Antimicrobial activity against penicillin-intermediate Streptococcus pneumoniae clinical isolates assessed as percent susceptible isolates by broth microdilution method in presence of clavulanate
[49] = test system: Streptococcus pneumoniae; assay: Antimicrobial activity against penicillin-resistant Streptococcus pneumoniae clinical isolates by broth microdilution method in presence of clavulanate
[50] = test system: Streptococcus pneumoniae; assay: Antimicrobial activity against penicillin-susceptible Streptococcus pneumoniae clinical isolates assessed as percent susceptible isolates by broth microdilution method in presence of clavulanate
[51] = test system: Streptococcus pneumoniae; assay: Antimicrobial activity against Streptococcus pneumoniae clinical isolates assessed as resistant isolates by broth microdilution method in presence of clavulanate
[52] = test system: Streptococcus pneumoniae; assay: Antimicrobial activity against penicillin-resistant Streptococcus pneumoniae clinical isolates assessed as percent susceptible isolates by broth microdilution method in presence of clavulanate
[53] = test system: Streptococcus pneumoniae; assay: Antimicrobial activity against penicillin-susceptible Streptococcus pneumoniae clinical isolates by broth microdilution method in presence of clavulanate
[54] = test system: Streptococcus pneumoniae; assay: Antimicrobial activity against penicillin-resistant Streptococcus pneumoniae clinical isolates assessed as resistant isolates by broth microdilution method in presence of clavulanate

Compound: CN[C@H](CC(C)C)C(=O)N[C@H]1C(=O)N[C@@H](CC(N)=O)C(=O)N[C@H]2C(=O)N[C@H]3C(=O)N[C@H](C(=O)N[C@H](C(=O)O)c4cc(O)cc(O)c4-c4cc3ccc4O)[C@H](O[C@H]3C[C@](C)(N)[C@@H](O)[C@H](C)O3)c3ccc(c(Cl)c3)Oc3cc2cc(c3O[C@@H]2O[C@H](CO)[C@@H](O)[C@H](O)[C@H]2O[C@H]2C[C@](C)(NCc3ccc(-c4ccc(Cl)cc4)cc3)[C@@H](O)[C@H](C)O2)Oc2ccc(cc2Cl)[C@H]1O [ORITAVANCIN]
- MIC90 [1]: 0.008 µg/mL (≈ 0.00446 µM)
- MIC90 [2]: 0.25 µg/mL (≈ 0.139 µM)
- MIC90 [3]: 0.12 µg/mL (≈ 0.0669 µM)
- MIC90 [4]: 0.008 µg/mL (≈ 0.00446 µM)
- MIC90 [5]: 0.25 µg/mL (≈ 0.139 µM)
- MIC90 [6]: 0.12 µg/mL (≈ 0.0669 µM)
- MIC90 [7]: 0.5 µg/mL (≈ 0.279 µM)
- MIC90 [8]: 0.25 µg/mL (≈ 0.139 µM)
- MIC90 [9]: 0.03 µg/mL (≈ 0.0167 µM)
- MIC90 [10]: 0.12 µg/mL (≈ 0.0669 µM)
- MIC [11]: ≤ 0.0005 µg/mL
- MIC90 [12]: 0.5 µg/mL (≈ 0.279 µM)
- MIC90 [13]: 0.25 µg/mL (≈ 0.139 µM)
- MIC90 [14]: 0.5 µg/mL (≈ 0.279 µM)
- MIC90 [15]: 1 µg/mL (≈ 0.558 µM)
- MIC90 [16]: 0.008 µg/mL (≈ 0.00446 µM)
- MIC90 [17]: 0.25 µg/mL (≈ 0.139 µM)
- MIC90 [18]: 0.25 µg/mL (≈ 0.139 µM)
- MIC90 [19]: 0.25 µg/mL (≈ 0.139 µM)
- MIC90 [20]: 0.12 µg/mL (≈ 0.0669 µM)
- MIC90 [21]: 0.25 µg/mL (≈ 0.139 µM)
- MIC90 [22]: 1 µg/mL (≈ 0.558 µM)
- MIC90 [23]: 0.06 µg/mL (≈ 0.0335 µM)
- MIC90 [24]: 0.25 µg/mL (≈ 0.139 µM)
- MIC90 [25]: 0.06 µg/mL (≈ 0.0335 µM)
- MIC90 [26]: 0.12 µg/mL (≈ 0.0669 µM)
- MIC90 [27]: 0.25 µg/mL (≈ 0.139 µM)
- MIC90 [28]: 1 µg/mL (≈ 0.558 µM)
- MIC90 [29]: 0.25 µg/mL (≈ 0.139 µM)
- MIC90 [30]: 0.25 µg/mL (≈ 0.139 µM)
- MIC90 [31]: 0.06 µg/mL (≈ 0.0335 µM)
- MIC90 [32]: 0.5 µg/mL (≈ 0.279 µM)
- MIC90 [33]: 0.5 µg/mL (≈ 0.279 µM)
- MIC90 [34]: 0.12 µg/mL (≈ 0.0669 µM)
- MIC90 [35]: 0.004 µg/mL (≈ 0.00223 µM)
- MIC90 [36]: 1 µg/mL (≈ 0.558 µM)
- MIC90 [37]: 0.06 µg/mL (≈ 0.0335 µM)
- MIC90 [38]: 0.25 µg/mL (≈ 0.139 µM)
- MIC90 [39]: 0.25 µg/mL (≈ 0.139 µM)
- MIC90 [40]: 0.06 µg/mL (≈ 0.0335 µM)
- MIC90 [41]: 0.5 µg/mL (≈ 0.279 µM)
- MIC90 [42]: 0.12 µg/mL (≈ 0.0669 µM)

Compound: CC1(C)S[C@@H]2[C@H](NC(=O)[C@H](N)c3ccc(O)cc3)C(=O)N2[C@H]1C(=O)O [AMOXICILLIN]
- Activity [43]: 0%
- Activity [44]: 0%
- MIC90 [45]: 1 µg/mL
- MIC90 [46]: 2 µg/mL
- Activity [47]: 93.1%
- Activity [48]: 99.5%
- MIC90 [49]: 8 µg/mL
- Activity [50]: 100%
- Activity [51]: 1.5%
- Activity [52]: 53.4%
- MIC90 [53]: 0.03 µg/mL
- Activity [54]: 10.1%
